The results in this text go back to PubChem BioAssay AID1645871.

SMILES strings stand for the structures.

For this data set the following is noted: pampa; pH 5.0; 30.0 min; 50.0 µM.
The term Papp denotes the rate of passage across a membrane or cell layer, normalised by area and donor concentration. Lower therefore signals slow passage. Turning to `CCOc1cc(CNc2ccc(O)cc2)ccc1OCc1ccc(Cl)cc1`, the Papp was found to be 187 ×10⁻⁶ cm/s.
Turning to `Cc1c(C)n(Cc2ccccc2)c2ccc(C(=O)OCCN(C)C)cc12`, the Papp is > 1000 ×10⁻⁶ cm/s.
Compound `O=C(Nc1cccnc1)c1cccs1` came in with an apparent permeability coefficient (Papp) of 181 ×10⁻⁶ cm/s.
The result for `CC(C)(C)CN1CCNc2cc(Nc3ccccc3)ncc2C1` reads 42.2 ×10⁻⁶ cm/s; that for `COc1ccc2c(c1)N(C[C@H](C)CN(C)C)c1ccccc1S2`, 723 ×10⁻⁶ cm/s.
As for `CCc1ccc(C2N=C(N)Nc3nc4ccccc4n32)cc1` (configuration not stated), the Papp was 1.54 ×10⁻⁶ cm/s.
`CCc1ccc(OC(C)C(=O)N2CCC(c3nc4ccccc4o3)CC2)cc1` (configuration not stated): the Papp is > 1000 ×10⁻⁶ cm/s.
The result for `C[C@H]1CN(C(=O)Nc2ccc(F)cc2F)C[C@@H]1c1nc(-c2ccccc2)no1` reads 917 ×10⁻⁶ cm/s.
`CC1=C(C(=O)Nc2nc3ccccc3s2)C(c2[nH]ncc2Cl)N=C(Nc2nc3ccccc3o2)N1` (configuration not stated) yielded a Papp of 15.6 ×10⁻⁶ cm/s.
For `CC1=Nc2cc(C(=O)NCCc3ccccc3)ccc2Sc2c(C)ccc(C)c21`, the apparent permeability coefficient (Papp) amounted to 466 ×10⁻⁶ cm/s.
The result for `O=C(NC1CCCc2c1[nH]c1c(Cl)cccc21)c1ccc2c(c1)OCO2` (configuration not stated) reads 190 ×10⁻⁶ cm/s; that for `COc1cc2ncnc(Nc3ccc(Oc4ccccc4)cc3)c2cc1OC`, 981 ×10⁻⁶ cm/s.
In the case of `COc1ccc(CN2CCc3c(c(=O)n4ncc(C(=O)N5CCN(c6ccccc6OC)CC5)c4n3C)C2)cc1`, the Papp was determined as 324 ×10⁻⁶ cm/s.
With `COc1cc2c(Nc3ccc(Br)cc3F)ncnc2cc1OCC1CCN(C)CC1` the figure was 97.3 ×10⁻⁶ cm/s; with `COc1cccc(CNCc2cccn2-c2nnc(N3CCN(c4ccccc4)CC3)s2)c1`, 924 ×10⁻⁶ cm/s; with `c1cc(-c2cc(-c3ccncc3)c3cncn3c2)c2cc[nH]c2c1`, 21.7 ×10⁻⁶ cm/s.
With `Cc1ccccc1NC(=O)Nc1cccs1` the figure was 209 ×10⁻⁶ cm/s; with `CCCCN(C)C(=O)c1c(C)sc2ccn(CCC)c(=O)c12`, 113 ×10⁻⁶ cm/s.
Turning to `Cc1ccc(-n2ncc3c(NCCCn4ccnc4)ncnc32)cc1Cl`, the Papp was determined as 559 ×10⁻⁶ cm/s.
With `CCC(=O)N1CCN(c2ccc(-n3c(=O)ccc4cnc5ccc(-c6cnc7ccccc7c6)cc5c43)cc2C(F)(F)F)CC1` the figure was 537 ×10⁻⁶ cm/s; with `COc1ccc(N(C)C(=O)c2cc3c(s2)-c2ccccc2OC3)cc1`, 963 ×10⁻⁶ cm/s; with `CCCCOc1ccc(C2c3c(oc4ccc(C)cc4c3=O)C(=O)N2CCCN(C)C)cc1OCC` (configuration not stated), 273 ×10⁻⁶ cm/s.
`COc1ccc(C2c3c(oc4ccc(C)cc4c3=O)C(=O)N2CCCN2CCOCC2)cc1OC` (configuration not stated) showed a Papp of 19.2 ×10⁻⁶ cm/s.
`Cn1nnnc1Sc1ncnc2scc(-c3cc4ccccc4o3)c12`: the Papp turned out to be 52.8 ×10⁻⁶ cm/s.
`COc1c(O)cc2c(c1OC)-c1ccc(SC)c(=O)cc1C(NC(C)=O)CC2` (configuration not stated) returned a Papp of 20.7 ×10⁻⁶ cm/s.
With `COc1ccc(-n2nc(C3CCN([S+](=O)([O-])c4c(C)noc4C)CC3)[nH]c2=O)cc1` the figure was 308 ×10⁻⁶ cm/s; with `COc1ccccc1CN1CCNc2cc(Nc3ccccc3)ncc2C1`, 22.3 ×10⁻⁶ cm/s.
Compound `CCOc1ccc(NC(=O)CC2C(=O)N(c3ccc(F)cc3)C(=O)N2CCc2sccc2C)cc1` (configuration not stated) gave a Papp of 831 ×10⁻⁶ cm/s.
With `COc1cc(NC(=O)c2nc3ccccc3n(C)c2=O)cc(OC)c1OC` the figure was 151 ×10⁻⁶ cm/s; with `COC(=O)Nc1nc2ccc(SC(C)C)cc2[nH]1`, 510 ×10⁻⁶ cm/s; with `C[C@H]1CN(C(=O)c2nn(C)c3ccccc23)C[C@@H]1c1nc(-c2ccncc2)no1`, 667 ×10⁻⁶ cm/s.
As to `CC(C)CNc1ccnc(NCc2csc(-c3ccccc3)n2)n1`, the Papp was > 1000 ×10⁻⁶ cm/s.
Take `O=C(Nc1ccc(N2CCC(N3CCCCC3)CC2)c(C(=O)O)c1)c1ccc(Br)cc1`: the Papp came out at 7.15 ×10⁻⁶ cm/s.
With `COc1cccc(C(=O)Nc2nnc(S(=O)(=O)N3CCOCC3)s2)c1` the figure was 787 ×10⁻⁶ cm/s; with `NC(=O)Nc1cc(-c2ccc(CN3CCOCC3)cc2)sc1C(N)=O`, 1.19 ×10⁻⁶ cm/s; with `O=C(Nc1ccc2c(N3CCOCC3)ncnc2c1)c1cccc(Br)c1`, 654 ×10⁻⁶ cm/s.
Take `C=Cc1ccc(Cn2c(C(=O)O)c(CNC3CCCCC3)c3ccc(OC)cc32)cc1`: the Papp was 702 ×10⁻⁶ cm/s.
With `NC1CCN(C(=O)C2CCCN(c3nc(-c4ccccc4)nc4c3CCC4)C2)CC1` (configuration not stated) the figure was 7.56 ×10⁻⁶ cm/s; with `O=c1[nH]c(N2CCOCC2)nc2c1CCN(Cc1cc(Cl)ccc1F)CC2`, 46.3 ×10⁻⁶ cm/s; with `O=C(Nc1ccc2c(N3CCCCC3)ncnc2c1)c1cc(F)cc(F)c1`, 817 ×10⁻⁶ cm/s.
With `Cc1ccc(NC(=O)NCC2CCN(Cc3cccc(Cl)c3)CC2)cc1Cl` the figure was > 1000 ×10⁻⁶ cm/s; with `O=C(NCC1CCN(Cc2cccc(Cl)c2)CC1)Nc1ccc(F)c(Cl)c1`, 638 ×10⁻⁶ cm/s.
The result for `COc1cc2cc(CN3CCC(N(C)C)C3)c(-c3cccc(Cl)c3)nc2cc1OC` (configuration not stated) reads 243 ×10⁻⁶ cm/s; that for `CC(=O)N[C@H]1CN(C2CCN(c3ccc(F)cc3C)CC2)C[C@@H]1C1CC1`, 144 ×10⁻⁶ cm/s.
Regarding `CCOc1ccc(OCC)c(NC(=O)C(NS(=O)(=O)c2ccc(Br)s2)c2ccccc2)c1` (configuration not stated), the Papp is 637 ×10⁻⁶ cm/s.
With `Cc1ccc(-n2c(=O)c3oc4ccccc4c3n(CC(=O)Nc3ccc(F)c(Cl)c3)c2=O)cc1C` the figure was 583 ×10⁻⁶ cm/s; with `COc1ccc(-n2nc(C3CCCN(C(=O)c4cccc(OC)c4)C3)[nH]c2=O)cc1` (configuration not stated), 431 ×10⁻⁶ cm/s; with `O=C(c1ccccc1)N1CCC(c2nn(-c3ccc(F)cc3)c(=O)[nH]2)CC1`, 521 ×10⁻⁶ cm/s.
With `FC(F)(F)c1ccccc1-c1nc(NCc2ccc(-c3cccnc3)cc2)c2ccccc2n1` the figure was 712 ×10⁻⁶ cm/s; with `CC1CCN(S(=O)(=O)c2ccc3c(ccc(=O)n3CC(=O)NCc3ccc(Cl)cc3)c2)CC1`, 828 ×10⁻⁶ cm/s; with `COc1ccc2c(c1)CCc1c-2n[nH]c1C(=O)N1CCc2c(nc3cc(-c4ccccc4)[nH]n3c2=O)C1`, 15.8 ×10⁻⁶ cm/s.
The result for `CC(=O)N1CCc2c(sc3c2c(=O)n(-c2ccccc2Cl)c(=O)n3Cc2cccc(C)c2)C1` reads 687 ×10⁻⁶ cm/s.
